Here are results for 2 compounds from patent publication US10426752B2, “Menthol-derivative compounds and use thereof as oral and systemic active agents” (priority 2009, dated 2019).

The subject of one test is GM-CSF. As to the kind of experiment: 5-plex assay by using Luminex: GM-CSF. It is filed as cell-based. Conditions: pure compounds. The text has this:
(§1) The menthol-derivative compound of the present invention was further evaluated in 5-plex assay by using luminex.

The next test concerns MMP-13 mRNA. As to the kind of experiment: Inhibition of MMP-13 mRNA expression stimulated by parathyroid hormone (PTH). It is filed as cell-based. The settings on record: PTH for 4 hours, FIG. 4. The protocol: The anti-MMP-13 activity was determined by measuring the inhibition of MMP-13 mRNA expression that is stimulated by parathyroid hormone (PTH).
In another test the test system is PGE2. Kind of test: PGE2 assay (anti-inflammatory test, SOP No. ATO-5307-00). It is filed as cell-based. As to the method: The anti-inflammation test was carried out according to SOP No. ATO-5307-00 measuring the percent inhibition of PGE2.
(§2) The bacterial anti-attachment activity of a selected radical of menthol carbonate/carbamate derivatives of the present invention was investigated using the crystal violate assay (SOP No. ATO-5345-00) in a 384-well plate over a 0.0004-2500 ppm concentration range. The anti-oxidant activity of the menthol carbonate/carbamate derivatives of the present invention was determined using the lipid peroxides assay (Kamiaya Biomedical Co., Seattle, Wash.) which is a colorimetric method that measures reduction of cumene hydroperoxide radicals. The anti-microbial test was performed according to the SOP No. ATO-5308-00 for determination of Minimal Inhibitory Concentration (MIC). The anti-inflammatory test was carried out according to SOP No. ATO-5307-00 measuring the percent inhibition of PGE2.
The anti-inflammatory activity of 2-isopropyl-5-methylcyclohexyl 2-hydroxyphenyl carbamate was tested in PGE2 assay and compared to Triclosan.

Test [1] is described as follows: Lipid peroxides assay (anti-oxidant activity). It is filed as biochemical. Conditions: in simple solution, FIG. 2. The protocol: The anti-oxidant activity was determined using the lipid peroxidases assay (Kamiaya Biomedical Co., Seattle, Wash.) which is a colorimetric method that measures reduction of cumene hydroperoxide radicals.
as §2

A further test has as its system A.v. As to the kind of experiment: Minimal Inhibitory Concentration (MIC) test, SOP No. ATO-5308-00. It is filed as cell-based. Conditions: for MIC: read-out: MIC (against A.v). As to the method: The anti-microbial test was measured according to the SOP No. ATO-5308-00 for determination of Minimal Inhibitory Concenctration (MIC).
as §2

A short description of test [2]: Artificial mouth model (anti-microbial efficacy). Conditions: FIG. 5.
For a further test, the system named is IL-1b. As to the kind of experiment: 5-plex assay by using Luminex: IL-1b. It is filed as cell-based. Conditions: pure compounds.
Text: as §1

Another test has as its system IL-6. As to the kind of experiment: 5-plex assay by using Luminex: IL-6. It is filed as cell-based. The settings on record: for IL-6 (reduction of untreated control): pure compounds.
Text: as §1

Another test relates to TNF-α. As to the kind of experiment: 5-plex assay by using Luminex: TNF-α. It is filed as cell-based. Conditions: for TNF-α (reduction of untreated control): pure compounds.
Text: as §1

≈ marks a conversion by molar mass, not a printed value. Like-named read-outs stand apart in the source and are kept apart here.

The term IC50 denotes the concentration that inhibits the measured activity by half. Broadly, the MIC is the lowest concentration found to suppress growth. Take `CC1CCC(C(C)C)C(OC(=O)Nc2ccccc2O)C1` (stereo not shown) [2-isopropyl-5-methylcyclohexyl 2-hydroxyphenyl carbamate]: the “GM-CSF (reduction of untreated control)” value in the test on GM-CSF is 6%. In addition, the “MMP-13 mRNA stimulated by parathyroid hormone (in words)” value with MMP-13 mRNA is “significantly suppressed”. For the same compound, the “Anti-inflammatory activity in PGE2 assay (in words)” value in the test on PGE2 (pure compound) is on record as “comparable to Triclosan”. For the same compound, the half-maximal inhibitory concentration (IC50) in the test on PGE2 (pure compounds, PGE2 assay, read-out: IC50) is 380 nM. The “Anti-oxidant efficacy (in words)” value in test [1] was “comparable anti-oxidant efficacy with Vitamin E”. Moreover, in the test with A.v, the “Anti-microbial efficacy in MIC test (in words)” value is given as “good anti-microbial efficacy”. In addition, the MIC with A.v (in vitro) amounted to 4.9 µg/mL (≈ 16.8 µM). In addition, the “Anti-microbial efficacy in artificial mouth model (in words)” value in [2] is reported as “good anti-microbial efficacy”. The “IL-1b (reduction of untreated control)” value in the test with IL-1b is given as 13%. In addition, the “IL-6 production (in words)” value with IL-6 (pure compound) was “significantly inhibits”. Besides, the “IL-6 (reduction of untreated control)” value in the test on IL-6 is reported as 33%. In addition, the “TNF-α production (in words)” value in the test with TNF-α (pure compound) is “significantly inhibits”. Besides, the “TNF-α (reduction of untreated control)” value with TNF-α is 81%.
For `Oc1cc(Cl)ccc1Oc1ccc(Cl)cc1Cl` [Triclosan, 2,4,4-trichloro-2′-hydroxydiphenyl ether, reference compound], in the test with GM-CSF, the “GM-CSF (reduction of untreated control)” value came out at 4%. The same compound came in with a half-maximal inhibitory concentration (IC50) in the test with PGE2 of 480 nM. The minimum inhibitory concentration (MIC) with A.v was 1.9 µg/mL (≈ 6.56 µM). Besides, the “IL-1b (reduction of untreated control)” value with IL-1b is recorded as 13%. Besides, the “IL-6 (reduction of untreated control)” value with IL-6 was found to be 37%. For the same compound, in the test with TNF-α, the “TNF-α (reduction of untreated control)” value came out at 58%.
